This passage reports IC50 results from patent publication US5478856A, “Styrene derivatives and salts thereof” (Taiho Pharmaceutical Co., Ltd., priority 1992, dated 1995).

The target of test [1] is Cyclooxygenase. The experiment in a line: Cyclooxygenase inhibiting effect (prostaglandin E2 formation from 14C-arachidonic acid, seminal vesicular gland microsomes). The note with it: seminal vasicular gland microsomes, prostaglandin E2 radioactivity. Format: biochemical. As to the method: (1) Cyclooxygenase inhibiting effect
This assay was carried out by the method described in Russell J. Taylor et al., Biochem. Pharmacol., 25, 2479-2484 (1976).
^14 C-arachidonic acid was reacted with seminal vasicular gland microsomes and the test drugs at various concentrations over a predetermined period of time and the obtained prostaglandin E2 was separated by thin layer chromatography. The radioactivity of prostaglandin E2 was determined by liquid scintillation counter. The IC50 values were calculated by the comparison with the radioactivity of the control.

The target of test [2] is T1, 5-Lipoxygenase (Cavia porcellus, UniProt A0A286X958).
T1 construct: the polymorphonuclear leucocytes were collected and the cytosol fraction was obtained as an enzyme source; endogenous in cells; host or cells: guinea pig peritoneal polymorphonuclear leucocytes (casein-elicited), cytosol fraction
T1 sequence (A0A286X958 1-674): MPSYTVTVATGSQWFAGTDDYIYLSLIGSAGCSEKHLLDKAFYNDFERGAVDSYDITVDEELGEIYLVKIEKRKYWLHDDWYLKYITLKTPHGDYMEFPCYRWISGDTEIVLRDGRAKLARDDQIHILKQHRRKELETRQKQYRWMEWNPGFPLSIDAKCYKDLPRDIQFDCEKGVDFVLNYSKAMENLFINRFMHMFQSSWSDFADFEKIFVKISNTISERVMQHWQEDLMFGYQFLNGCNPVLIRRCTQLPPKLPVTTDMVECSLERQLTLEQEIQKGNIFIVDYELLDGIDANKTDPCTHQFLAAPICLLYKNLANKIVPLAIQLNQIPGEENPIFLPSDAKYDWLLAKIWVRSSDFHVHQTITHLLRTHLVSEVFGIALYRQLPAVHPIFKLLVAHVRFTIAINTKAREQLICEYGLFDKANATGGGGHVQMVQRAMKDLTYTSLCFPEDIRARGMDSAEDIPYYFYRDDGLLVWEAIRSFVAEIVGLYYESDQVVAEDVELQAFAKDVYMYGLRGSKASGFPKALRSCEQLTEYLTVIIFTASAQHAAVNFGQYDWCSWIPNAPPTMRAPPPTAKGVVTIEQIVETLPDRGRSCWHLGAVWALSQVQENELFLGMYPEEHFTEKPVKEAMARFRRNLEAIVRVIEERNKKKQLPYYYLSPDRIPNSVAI
Briefly: 5-Lipoxygenase inhibiting activity (5-hydroxyeicosatetraenoic acid formation from 14C-arachidonic acid, cytosol fraction of polymorphonuclear leucocytes). Format: biochemical. The note with it: guinea pig polymorphonuclear leucocyte cytosol, 5-hydroxyeicosatetraenoic acid radioactivity. As to the method: (2) 5-Lipoxygenase inhibiting activity
This assay was carried out by the method described in Kenkichi Ochi et al., J. Biol. Chem., 258, 5754-5758 (1983).
Casein was injected into the abdominal cavity of a guinea pig, and the polymorphonuclear leucocytes were collected and the cytosol fraction was obtained as an enzyme source. ^14 C-arachidonic acid was reacted with the enzyme and the test drug at various concentrations over a predetermined period of time. The obtained 5-hydroxyeicosatetraenoic acid was separated by thin layer chromatography and the radioactivity was determined. The IC50 values were calculated by the comparison with the radioactivity of the control.

Usually IC50 stands for the point on the concentration scale where inhibition reaches its midpoint.

Turning to `COc1ccc(-c2noc(CCNC(=O)C(=Cc3cc(OC)c(O)c(OC)c3)NC(C)=O)c2-c2ccc(OC)cc2)cc1` [Compound 18], the IC50 in test [1] is 110 nM; in test [2] it was 180 nM.
The corresponding values for `COc1ccc(-c2noc(C(C#N)=Cc3cc(OC)c(O)c(OC)c3)c2-c2ccc(OC)cc2)cc1` [Compound 20] are 1850 nM and 240 nM.
The corresponding values for `COc1ccc(-c2noc(CCNC(=O)C(=Cc3cc(OC)c(O)c(OC)c3)C(=O)N(C)C)c2-c2ccc(OC)cc2)cc1` [Compound 8] are 4760 nM and 260 nM.
For the compound `COCC(=Cc1cc(OC)c(O)c(OC)c1)C(=O)NCCc1onc(-c2ccc(OC)cc2)c1-c1ccc(OC)cc1` [Compound 3], the IC50 was 1200 nM in test [1] and 300 nM in test [2].
The like results for `COc1ccc(-c2noc(CCNC(=O)C(C#N)=CC=Cc3cc(OC)c(O)c(OC)c3)c2-c2ccc(OC)cc2)cc1` [Compound 11] were, in that order, 680 nM and 240 nM.
The like results for `CCCC(=Cc1cc(OC)c(O)c(OC)c1)C(=O)NCCc1onc(-c2ccc(OC)cc2)c1-c1ccc(OC)cc1` [Compound 4] were, in that order, 950 nM and 180 nM.
The like results for `COc1ccc(-c2noc(CCNC(=O)C(C#N)=Cc3cc(OC)c(O)c(OC)c3)c2-c2ccc(OC)cc2)cc1` [Compound 2] were, in that order, 4050 nM and 650 nM.
As for `COc1ccc(-c2noc(CCNC(=O)C(=Cc3cc(OC)c(O)c(OC)c3)c3cccs3)c2-c2ccc(OC)cc2)cc1` [Compound 7], the IC50 in test [1] was 170 nM; in test [2], 80 nM.
The like results for `CCOC(=O)C(=Cc1cc(OC)c(O)c(OC)c1)C(=O)NCCc1onc(-c2ccc(OC)cc2)c1-c1ccc(OC)cc1` [Compound 1] were, in that order, 2870 nM and 1170 nM.
The like results for `COc1ccc(-c2noc(CCNC(=O)C(=Cc3cc(OC)c(O)c(OC)c3)c3ccccn3)c2-c2ccc(OC)cc2)cc1` [Compound 6] were, in that order, 1380 nM and 620 nM.
The like results for `COc1ccc(-c2noc(CCN(CC(=O)O)C(=O)C=CC=Cc3cc(OC)c(O)c(OC)c3)c2-c2ccc(OC)cc2)cc1` [Compound 23] were, in that order, 2940 nM and 90 nM.
